Laboratory results taken from patent US10301261B2, “Substituted indoles as modulators of ROR-gamma” (Vitae Pharmaceuticals, LLC, priority 2015, dated 2019).

Legend:
[1] = target: full-length RORγt in Jurkat cells (Homo sapiens (Human), UniProt P51449); assay: RORγt 5×RORE Assay in Jurkat Cells (Assay 2); format: cell-based; details: RORγt 5×RORE Nanoluc reporter
Procedure: [formula] RORγt 5×RORE Assay in Jurkat Cells (Assay 2)
Compounds described herein were tested for RORγ inverse agonist activity in a cell-based, transcriptional activity assay. […] (Promega, Cat. # N1021) using KpnI and HindIII restriction sites. […] Tested compounds were added to the cells in the same media (final concentration of DMSO was 0.1% (v/v)), and the plates were incubated at 37° C./5% CO2 for 16-18 hrs. Luciferase activity in the conditioned supernatants was determined with NanoGlo® assay reagents (Promega, Cat.# N1130).

[2] = target: recombinant RORγ Ligand Binding Domain (LBD) protein (Homo sapiens (Human), UniProt P51449); assay: Radio-Ligand RORγ Binding Assay (Assay 1); details: radio-ligand 25-hydroxy [26,27-3H]-cholesterol competition
Procedure: Radio-Ligand RORγ Binding Assay (Assay 1)
Compounds described herein were tested for ability to bind to RORγ in a cell-free competition assay with commercially available radio-ligand (RL), 25-hydroxy [26,27-^3H]-cholesterol (PerkinElmer, Cat. # NET674250UC), for a ligand binding site on a recombinant RORγ Ligand Binding Domain (LBD) protein expressed as a 6×His-Glutathione-S-Transferase (GST) fusion. […] The plate was shaken at 700 rpm for 20 min and incubated for 10 min at rt, after which 40 μL of poly-Lys YSi SPA beads (PerkinElmer, Cat. # RPNQ0010) were added to achieve 50 μg of the beads per well. The plate was incubated on an orbital shaker for 20 min and then for 10 min without agitation at rt. SPA signal for tritium beta radiation was registered on PerkinElmer Microbeta plate reader. […] The percent inhibition vs. concentration data were fit into a four-parameter model, and IC50 values were calculated from the fit as the concentrations corresponding to the inflection points on the dose-response curves. […]

Chain of recombinant RORγ Ligand Binding Domain (LBD) protein (P51449 269-508): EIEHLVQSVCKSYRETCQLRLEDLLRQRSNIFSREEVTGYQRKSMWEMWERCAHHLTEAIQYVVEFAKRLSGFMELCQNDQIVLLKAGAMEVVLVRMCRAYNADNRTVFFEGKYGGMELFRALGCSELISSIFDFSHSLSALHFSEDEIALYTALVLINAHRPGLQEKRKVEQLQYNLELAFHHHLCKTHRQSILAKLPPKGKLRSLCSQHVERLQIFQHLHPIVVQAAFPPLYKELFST
Chain of full-length RORγt in Jurkat cells (P51449 other isoform, or with tags, fused parts or gaps): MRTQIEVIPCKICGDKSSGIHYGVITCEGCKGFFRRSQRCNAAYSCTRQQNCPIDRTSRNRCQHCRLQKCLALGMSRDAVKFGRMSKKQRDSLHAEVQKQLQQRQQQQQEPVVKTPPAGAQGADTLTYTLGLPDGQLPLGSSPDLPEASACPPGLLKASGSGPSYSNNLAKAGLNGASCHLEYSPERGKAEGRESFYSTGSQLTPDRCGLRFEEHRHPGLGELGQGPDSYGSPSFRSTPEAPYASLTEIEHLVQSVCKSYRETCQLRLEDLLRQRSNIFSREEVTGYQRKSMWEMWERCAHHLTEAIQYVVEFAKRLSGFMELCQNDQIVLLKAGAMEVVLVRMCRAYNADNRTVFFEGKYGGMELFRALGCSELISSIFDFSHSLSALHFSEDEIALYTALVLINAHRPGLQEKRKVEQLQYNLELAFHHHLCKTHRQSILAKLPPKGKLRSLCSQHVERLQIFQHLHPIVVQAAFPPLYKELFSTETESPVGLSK

Compound | IC50 [1] | Ki [2]
CCS(=O)(=O)c1ccc(CNC(=O)c2ccc3c(c2)nc(C[C@H]2CC[C@H](C(F)(F)F)CC2)n3CC(C)C)nc1 [BE-26.1, N-((5-(ethylsulfonyl)pyridin-2-yl)methyl)-1-isobutyl-2-(((1r,4r)-4-(trifluoromethyl)cyclohexyl)methyl)-1H-benzo[d]imidazole-5-carboxamide] | > 1000 nM | < 100 nM
CCS(=O)(=O)c1ccc(CNC(=O)c2ccc3c(c2)nc(C[C@H]2CC[C@@H](C(F)(F)F)CC2)n3CC(C)C)nc1 [BE-26.2, N-((5-(ethylsulfonyl)pyridin-2-yl)methyl)-1-isobutyl-2-(((1s,4s)-4-(trifluoromethyl)cyclohexyl)methyl)-1H-benzo[d]imidazole-5-carboxamide] | > 1000 nM | < 100 nM
CCS(=O)(=O)c1ccc(CNC(=O)c2ccc3c(c2)nc(C[C@H]2CC[C@H](C(F)(F)F)CC2)n3C2CC2)nc1 [BE-27.1, 1-cyclopropyl-N-((5-(ethylsulfoyl)pyridin-2-yl)methyl)-2-(((1r,4r)-4-(trifluoromethyl)cyclohexyl)methyl)-1H-benzo[d]imidazole-5-carboxamide] | < 100 nM | < 100 nM
CCS(=O)(=O)c1ccc(CNC(=O)c2ccc3c(c2)nc(C[C@H]2CC[C@@H](C(F)(F)F)CC2)n3C2CC2)nc1 [BE-27.2, 1-cyclopropyl-N-((5-(ethylsulfonyl)pyridin-2-yl)methyl)-2-(((1s,4s)-4-(trifluoromethyl)cyclohexyl)methyl)-1H-benzo[d]imidazole-5-carboxamide] | > 1000 nM | < 100 nM
CCS(=O)(=O)c1ccc([C@H](CO)NC(=O)c2ccc3c(c2)nc(C[C@H]2CC[C@H](C(F)(F)F)CC2)n3C2CC2)nc1 [BE-28, 1-cyclopropyl-N-((R)-1-(5-(ethylsulfonyl)pyridin-2-yl)-2-hydroxyethyl)-2-(((1r,4R)-4-(trifluoromethyl)cyclohexyl)methyl)-1H-benzo[d]imidazole-5-carboxamide] | < 100 nM | < 100 nM
CS(=O)(=O)c1ccc(CNC(=O)c2ccc3c(c2)nc(C[C@H]2CC[C@H](C(F)(F)F)CC2)n3C2CC2)cc1 [BE-30, 1-cyclopropyl-N-(4-(methylsulfonyl)benzyl)-2-(((1r,4r)-4-(trifluoromethyl)cyclohexyl)methyl)-1H-benzo[d]imidazole-5-carboxamide] | < 100 nM | < 100 nM
CNS(=O)(=O)c1ccc(CNC(=O)c2ccc3c(c2)nc(C[C@H]2CC[C@H](C(F)(F)F)CC2)n3C2CC2)nc1 [BE-31, 1-cyclopropyl-N-((5-(N-methylsulfamoyl)pyridin-2-yl)methyl)-2-(((1r,4r)-4-(trifluoromethyl)cyclohexyl)methyl)-1H-benzo[d]imidazole-5-carboxamide] | > 1000 nM | < 100 nM
CS(=O)(=O)c1ccc([C@H](CO)NC(=O)c2ccc3c(c2)nc(C[C@H]2CC[C@H](C(F)(F)F)CC2)n3C2CC2)cc1 [BE-32, 1-cyclopropyl-N-((R)-2-hydroxy-1-(4-(methylsulfonyl)phenyl)ethyl)-2-(((1r,4R)-4-(trifluoromethyl)cyclohexyl)methyl)-1H-benzo[d]imidazole-5-carboxamide] | < 100 nM | < 100 nM
CNS(=O)(=O)c1ccc(CNC(=O)c2ccc3c(c2)nc(C[C@H]2CC[C@H](C(F)(F)F)CC2)n3C2CC2)cc1 [BE-33, 1-cyclopropyl-N-(4-(N-methylsulfamoyl)benzyl)-2-(((1r,4r)-4-(trifluoromethyl)cyclohexyl)methyl)-1H-benzo[d]imidazole-5-carboxamide] | < 100 nM | < 100 nM
CCn1c(Cc2ccc(C(F)(F)F)cc2)nc2cc(C(=O)NCc3ccc(S(=O)(=O)CC)cc3)ccc21 [BE-35, 1-ethyl-N-(4-(ethylsulfonyl)benzyl)-2-(4-(trifluoromethyl)benzyl)-1H-benzo[d]imidazole-5-carboxamide] | < 100 nM | < 100 nM
CCS(=O)(=O)c1ccc(CNC(=O)c2ccc3c(c2)nc(Cc2ccc(C(F)(F)F)cc2)n3C2CC2)cc1 [BE-36, 1-cyclopropyl-N-(4-(ethylsulfonyl)benzyl)-2-(4-(trifluoromethyl)benzyl)-1H-benzo[d]imidazole-5-carboxamide] | < 100 nM | < 100 nM
CCS(=O)(=O)c1ccc(CNC(=O)c2ccc3c(c2)nc(Cc2ccc(C(F)(F)F)cc2)n3CC(F)(F)F)cc1 [BE-37, N-(4-(ethylsulfonyl)benzyl)-1-(2,2,2-trifluoroethyl)-2-(4-(trifluoromethyl)benzyl)-1H-benzo[d]imidazole-5-carboxamide] | < 100 nM | < 100 nM
CCS(=O)(=O)c1ccc(CNC(=O)c2ccc3c(c2)nc(C[C@H]2CC[C@H](OC)CC2)n3C2CC2)cc1 [BE-46.1, 1-cyclopropyl-N-(4-(ethylsulfonyl)benzyl)-2-(((1r,4r)-4-methoxycyclohexyl)methyl)-1H-benzo[d]imidazole-5-carboxamide] | 100 to 1000 nM | < 100 nM
CCS(=O)(=O)c1ccc(CNC(=O)c2ccc3c(c2)nc(C[C@H]2CC[C@@H](OC)CC2)n3C2CC2)cc1 [BE-46.2, 1-cyclopropyl-N-(4-(ethylsulfonyl)benzyl)-2-(((1s,4s)-4-methoxycyclohexyl)methyl)-1H-benzo[d]imidazole-5-carboxamide] | > 1000 nM | < 100 nM
CCS(=O)(=O)c1ccc([C@H](CO)NC(=O)c2ccc3c(c2)nc(Cc2ccc(OC(F)(F)F)cc2)n3C2CC2)cc1 [BE-47, (R)-1-cyclopropyl-N-(1-(4-(ethylsulfonyl)phenyl)-2-hydroxyethyl)-2-(4-(trifluoromethoxy)benzyl)-1H-benzo[d]imidazole-5-carboxamide] | < 100 nM | < 100 nM
CCS(=O)(=O)c1ccc(CNC(=O)c2ccc3c(c2)nc(Cc2ccc(OC(F)F)cc2)n3C2CC2)cc1 [BE-48, 1-cyclopropyl-2-(4-(difluoromethoxy)benzyl)-N-(4-(ethylsulfonyl)benzyl)-1H-benzo[d]imidazole-5-carboxamide] | < 100 nM | < 100 nM
CCS(=O)(=O)c1ccc(CNC(=O)c2ccc3c(c2)nc(CC2CCN(C(=O)OC(C)(C)C)CC2)n3C2CC2)cc1 [BE-49, tert-butyl 4-((1-cyclopropyl-5-((4-(ethylsulfonyl)benzyl)carbamoyl)-1H-benzo[d]imidazol-2-yl)methyl)piperidine-1-carboxylate] | 100 to 1000 nM | < 100 nM
CCS(=O)(=O)c1ccc(CNC(=O)c2ccc3c(c2)nc(Cc2ccc(Cl)cn2)n3C2CC2)cc1 [BE-52, 2-((5-chloropyridin-2-yl)methyl)-1-cyclopropyl-N-(4-(ethylsulfonyl)benzyl)-1H-benzo[d]imidazole-5-carboxamide] | > 1000 nM | < 100 nM
CCS(=O)(=O)c1ccc(CNC(=O)c2ccc3c(c2)nc(CN2CCC(C(F)(F)F)CC2)n3CC(C)C)cc1 [BE-53, N-(4-(ethylsulfonyl)benzyl)-1-isobutyl-2-((4-(trifluoromethyl)piperidin-1-yl)methyl)-1H-benzo[d]imidazole-5-carboxamide] | < 100 nM | < 100 nM
CCS(=O)(=O)c1ccc([C@H](CO)NC(=O)c2ccc3c(c2)nc(CN2CCC(C(F)(F)F)CC2)n3C2CC2)cc1 [BE-54, (R)-1-cyclopropyl-N-(1-(4-(ethylsulfonyl)phenyl)-2-hydroxyethyl)-2-((4-(trifluoromethyl)piperidin-1-yl)methyl)-1H-benzo[d]imidazole-5-carboxamide] | < 100 nM | < 100 nM
CCS(=O)(=O)c1ccc(CNC(=O)c2ccc3c(c2)nc(C(=O)c2ccc(C(F)(F)F)cc2)n3C2CC2)cc1 [BE-65, 1-cyclopropyl-N-(4-(ethylsulfonyl)benzyl)-2-(4-(trifluoromethyl)benzoyl)-1H-benzo[d]imidazole-5-carboxamide] | < 100 nM | < 100 nM
CCS(=O)(=O)c1ccc([C@H](CO)NC(=O)c2ccc3c(c2)nc(Oc2ccc(C(F)(F)F)cc2)n3C2CC2)nc1 [BE-70, (R)-1-cyclopropyl-N-(1-(5-(ethylsulfonyl)pyridin-2-yl)-2-hydroxyethyl)-2-(4-(trifluoromethyl)phenoxy)-1H-benzo[d]imidazole-5-carboxamide] | < 100 nM | < 100 nM
CCn1c(Cc2ccc(C(F)(F)F)cc2)cc2cc(C(=O)NCc3ccc(S(=O)(=O)CC)cc3)ccc21 [IN-1, 1-ethyl-N-(4-(ethylsulfonyl)benzyl)-2-(4-(trifluoromethyl)benzyl)-1H-indole-5-carboxamide] | < 100 nM | < 100 nM
CCn1c(Cc2ccc(C(F)(F)F)cc2)cc2cc(C(=O)NCc3ccc(S(=O)(=O)CC)cn3)ccc21 [IN-2, 1-ethyl-N-((5-(ethylsulfonyl)pyridin-2-yl)methyl)-2-(4-(trifluoromethyl)benzyl)-1H-indole-5-carboxamide] | < 100 nM | < 100 nM
CCn1c(Cc2ccc(C(F)(F)F)cc2)cc2cc(C(=O)N[C@@H](CO)c3ccc(S(=O)(=O)CC)cc3)ccc21 [IN-3, (R)-1-ethyl-N-(1-(4-(ethylsulfonyl)phenyl)-2-hydroxyethyl)-2-(4-(trifluoromethyl)benzyl)-1H-indole-5-carboxamide] | < 100 nM | < 100 nM
